From patent US10730885B1, “Coumarin derivatives” (KING SAUD UNIVERSITY, priority 2019, dated 2020)
Values after ≈ are worked out from the molar mass of the structure shown. “Also recorded” adds a separate entry of the source. Read-outs that look alike come from different tables or passages of the source.

Tests used:
[1] = DPPH microplate radical scavenging antioxidant assay; type: biochemical; conditions: for IC50: DPPH, 30 min, mean ± SD (n = 3)
Method: The antioxidant activity of the synthesized compounds was measured in terms of hydrogen-donating or radical scavenging ability using the DPPH microplate-based method. Absorbance measurement was obtained using Microplate/cuvette reader (Spectramax M5, Molecular Devices, California, USA). Reference standard compound ascorbic acid was used as the positive control for this assay at concentrations ranging from 1.563 to 200 μg/mL. Test samples were prepared at a starting concentration of 200 μg/mL after mixing with 100 μl of 0.2 mM DPPH methanolic solution. A series of concentrations were tested for the samples in order to determine the 50% inhibitory concentration (IC50). Samples were incubated with DPPH in the dark for 30 min at room temperature (25° C.). The DPPH solution in methanol was prepared daily and stored in a flask covered with aluminum foil. DPPH radicals have an absorption maximum (λmax) at 515 nm, in which the absorbance values were measured and converted into percentage of antioxidant activity.
Methanolic DPPH solution without antioxidant was applied as control and background control was samples in methanol only. IC50 was determined using Graphpad Prism 7 (Graphpad Software Inc. CA, USA). The percentage inhibition was calculated by using the formula:
The assay was carried out in triplicate and performed as much as possible in an area protected against light. The data points are presented as the mean±standard deviation (SD) (n=3).

[2] = system: Candida albicans NRRL Y-477; assay: Agar well diffusion, primary antimicrobial screening; type: cell-based; conditions: for zone of inhibition at 10000 µg/mL: Candida albicans, NRRLY477, C. albicans NRRL Y-477, 100 μL of 10 mg/ml in DMSO, 24 h, read-out: Inhibition Diameter Zone CA; for antifungal activity compared with reference drug: C. albicans
From the text: (§1) The newly synthesized compounds were individually tested for their in vitro antimicrobial activity against the standard bacteria strains of American Type Culture Collection (ATCC), namely, Staphylococcus aureus ATCC 29213, Bacillus subtilis ATCC 6633, Bacillus megaterium ATCC 9885 (Gram-positive), Escherichia coli ATCC 2592 and Pseudomonas aeruginosa ATCC 27953 (Gram-negative). In addition, they were microbiologically tested against the locally isolated Saccharomyces cerevisiae (yeast) and the standard strain of Agricultural Research Service Culture Collection (NRRL) of the yeast like pathogenic fungus Candida albicans NRRL Y-477. The primary screening was carried out using the agar well diffusion method using nutrient agar (NA) medium and Sabourand dextrose agar (SDA) medium for pathological tested bacteria and yeast, respectively.
(§2) Antimicrobial tests were carried out by the agar well diffusion method using 100 μL of suspension containing 1×10^8 CFU/mL of pathological tested bacteria and 1×10^6 CFU/ml of yeast spread on NA and SDA, respectively. After the media was cooled and solidified, wells (10 mm in diameter) were made in the solidified agar and loaded with 100 μL of tested compound solution prepared by dissolving 10 mg of the chemical compound in one ml of dimethyl sulfoxide (DMSO). The inculcated plates were then incubated for 24 h at 37° C. for bacteria and yeast. Negative controls were prepared using DMSO employed for dissolving the tested compound. Ciprofloxacin (10 mg/ml) and ketoconazole (10 mg/ml) were used as standard for antibacterial and antifungal activity, respectively. After incubation time, antimicrobial activity was evaluated by measuring the zone of inhibition against the test organisms and compared with that of the standard. Antimicrobial activities were expressed as inhibition diameter zones in millimeters (mm). The experiment was carried out in triplicate and the average zone of inhibition was calculated.

[3] = system: Saccharomyces cerevisiae (local isolate); assay: as above; type: cell-based; conditions: for zone of inhibition at 10000 µg/mL: Saccharomyces cerevisiae, 24 h, read-out: Inhibition Diameter Zone SC; for antimicrobial activity compared with ketoconazole: S. cerevisiae
From the text: as §1, §2

[4] = system: Staphylococcus aureus ATCC 29213; assay: as above; type: cell-based; conditions: for zone of inhibition at 10000 µg/mL: Staphylococcus aureus, ATCC29213, S. aureus ATCC 29213, 100 μL of 10 mg/ml in DMSO, 24 h, read-out: Inhibition Diameter Zone SA; for antibacterial activity compared with ciprofloxacin: S. aureus
From the text: as §1, §2

[5] = system: trypsin; assay: Proteinase inhibitory activity (trypsin/casein); type: biochemical; conditions: for % Inhibition of proteinase activity: 250 μg/ml, mean ± SD (n = 3)
Method: For proteinase inhibitory activity, the reaction mixture (2 ml) contained 0.06 mg trypsin, 20 mM Tris HCl buffer (pH 7.4) and 1 ml test sample (250 μg/ml for each compound). The mixture was incubated for 5 min and then 1 ml of 0.8% (w/v) casein was added. The mixture was incubated for an additional 20 min. 1 ml of 10% perchloric acid was added to arrest the reaction. The cloudy suspension was centrifuged, and the absorbance of the supernatant was read at 280 nm. Reference standard compound aspirin was used as the positive control for this assay. The experiment was performed in triplicate. Percentage inhibition of […] was calculated by using the following formula:
[formula] where Acontrol is the absorbance of the control reaction and Atest is the absorbance of the control reaction with sample.

[6] = system: formaldehyde-induced paw oedema; assay: Formaldehyde-induced rat paw oedema; type: in vivo; conditions: 2.5 mg/kg orally
Method: Testing was performed to determine formaldehyde-induced rat paw oedema (edema). For the formaldehyde-induced rat paw oedema (edema) test, female Wister albino rats (150-175 g) were used for determination of the anti-inflammatory activities. The rats were obtained from the animal house colony of the National Organization for Drug Control and Research (NODCAR), Egypt. The animals were kept in standard plastic cages in an air conditioned room at 22±3° C., 55±5% humidity and supplied with standard laboratory diet and water ad libitum. All animal experimental procedures were carried out according to the Ethics Committee of the National Research Centre, Cairo, Egypt and followed the guidelines of the National Institutes of Health, Guide for Care and Use of Laboratory Animals (1985).
The percentage protection against inflammation was calculated by using following formula:
[formula] where Vc is the mean percentage increase in paw volume in the control and Vd is the mean percentage increase in paw volume after injection of the test compound. Values were expressed as mean±standard error (S.E.). Comparisons between mean values were carried out using two-way analysis of variance (ANOVA), followed by Tukey Kramer multiple comparisons test for all acute toxicity study tests. […] was considered significant. Graph pad prism software (version 6) was used to carry out all statistical tests.

[7] = system: Bacillus megaterium ATCC 9885; assay: Agar well diffusion, primary antimicrobial screening; type: cell-based
From the text: as §1, §2

[8] = system: Bacillus subtilis ATCC 6633; assay: as above; type: cell-based; conditions: for antibacterial activity compared with reference drug: B. subtilis
From the text: as §1, §2

[9] = system: Escherichia coli ATCC 2592; assay: as above; type: cell-based; conditions: for zone of inhibition at 10000 µg/mL: Escherichia coli, ATCC2592, E. coli ATCC 2592, 100 μL of 10 mg/ml in DMSO, 24 h, read-out: Inhibition Diameter Zone EC
From the text: as §1, §2

[10] = system: Pseudomonas aeruginosa ATCC 27953; assay: as above; type: cell-based; conditions: for zone of inhibition at 10000 µg/mL: Pseudomonas aeruginosa, ATCC27953, P. aeruginosa ATCC 27953, 100 μL of 10 mg/ml in DMSO, 24 h, read-out: Inhibition Diameter Zone PA
From the text: as §1, §2

[11] = system: tested microorganisms; assay: Agar well diffusion, summary over the tested microorganisms; type: cell-based; conditions: for antimicrobial activity compared with standard antimicrobials (ciprofloxacin and ketoconazole): against one or more microorganisms
From the text: as §1, §2

[12] = S. cerevisiae local isolate, 100 μL of 10 mg/ml in DMSO

SMILES	IC50 [1]	zone of inhibition at 10000 µg/mL [2] [mm]	zone of inhibition at 10000 µg/mL [4] [mm]	in vitro anti-proteinase activity compared with aspirin [5]	% Inhibition of proteinase activity [5] [%]	in vivo anti-inflammatory activity [6]	melting point [°C]	zone of inhibition at 10000 µg/mL [9] [mm]	zone of inhibition at 10000 µg/mL [10] [mm]	zone of inhibition at 10000 µg/mL [3, 12] [mm]	antibacterial activity compared with reference drug [8]	antimicrobial activity compared with ketoconazole [3]	antibacterial activity compared with ciprofloxacin [4]	antimicrobial activity compared with standard antimicrobials (ciprofloxacin and ketoconazole) [11]	antifungal activity compared with reference drug [2]	other results
Cc1ccc2oc(=O)c3c(c2c1)OC(N)=C(C(N)=O)C3c1ccc([N+](=O)[O-])cc1 (racemic) [Compound 6a, (±)-2-amino-9-methyl-4-(4-nitrophenyl)-5-oxo-4H, 5H-pyrano[3,2-c]chromene-3-carboxamide]	— ((—): inactive (IC50 > 200 μg/mL))	< 15	< 15	more potent	79.72±4.51	significant in vivo anti-inflammatory activity; also recorded: significant protection against inflammation	142 to 144	–	–	–	–	–	–	–	–	zone of inhibition at 10000 µg/mL [3]: < 15 mm
Cc1ccc2oc(=O)c(S(=O)(=O)Nc3ccc(S(N)(=O)=O)cc3)c(O)c2c1 [Compound 10b, 4-Hydroxy-6-methyl-2-oxo-N-(4-sulfamoylphenyl)-2H-chromene-3-sulfonamide]	61.78 ± 2.719 µg/mL (≈ 151 µM)	< 15	< 15	–	5.93 ± 2.11	–	241 to 243	< 15	< 15	< 15	–	–	–	–	–	zone of inhibition at 10000 µg/mL ([7]; Priestia megaterium, ATCC9885, B. megaterium ATCC 9885, 100 μL of 10 mg/ml in DMSO, 24 h, read-out: Inhibition Diameter Zone BM): < 15 mm; zone of inhibition at 10000 µg/mL ([8]; Bacillus subtilis, ATCC6633, B. subtilis ATCC 6633, 100 μL of 10 mg/ml in DMSO, 24 h, read-out: Inhibition Diameter Zone BS): < 15 mm; growth inhibition zones ([11]; against one or more of the tested microorganisms): < 15 mm
Cc1ccc2oc(=O)c(S(=O)(=O)Nc3ccc(S(=O)(=O)Nc4nccs4)cc3)c(O)c2c1 [Compound 10f, 4-hydroxy-6-methyl-2-oxo-N-(4-(N-(thiazol-2-yl)sulfamoyl)phenyl)-2H-chromene-3-sulfonamide]	83.52 ± 1.849 µg/mL (≈ 169 µM)	–	–	as potent	43.88 ± 5.6	significant protection against inflammation	167 to 169	–	–	–	–	–	–	–	–	–
O=c1oc2ccc(Cl)cc2c(O)c1S(=O)(=O)Nc1ccc(O)cc1 [Compound 11c, 6-Chloro-4-hydroxy-N-(4-hydroxyphenyl)-2-oxo-2H-chromene-3-sulfonamide]	3.87 ± 0.409 µg/mL (≈ 10.5 µM)	–	–	as potent	–	significant protection against inflammation	250 to 251	–	–	32	comparable antibacterial activities to the standard	higher than that of the corresponding control drug	higher than the control ciprofloxacin	equal to or higher than the standard antimicrobials	–	antioxidant activity ([1]; overview): particularly high antioxidant activity
CC(=O)c1ccc(NS(=O)(=O)c2c(O)c3cc(Cl)ccc3oc2=O)cc1 [Compound 11e, N-(4-acetylphenyl)-6-chloro-4-hydroxy-2-oxo-2H-chromene-3-sulfonamide]	32.85 ± 1.322 µg/mL (≈ 83.4 µM)	< 15	< 15	–	–	–	238 to 240	< 15	< 15	< 15	–	–	–	–	higher antifungal activity	% inhibition of rat paw oedema ([6]; one hour after induction of inflammation): 9.45%
O=C(/C=C/c1ccc(Cl)cc1)c1ccc(NS(=O)(=O)c2c(O)c3cc(Cl)ccc3oc2=O)cc1 [Compound 12c, (E)-6-chloro-N-(4-(3-(4-chlorophenyl)acryloyl)phenyl)-4-hydroxy-2-oxo-2H-chromene-3-sulfonamide]	— ((—): inactive (IC50 > 200 μg/mL))	–	–	–	17.6 ± 6.86	–	157 to 159	–	–	31	comparable antibacterial activities to the standard	higher than that of the corresponding control drug	equal to ciprofloxacin	equal to or higher than the standard antimicrobials	higher antifungal activity	antibacterial activity compared with ciprofloxacin ([7]; B. megaterium): comparable to ciprofloxacin; antibacterial activity compared with ciprofloxacin ([9]; E. coli): comparable antibacterial potential; antibacterial activity compared with standard ([10]; P. aeruginosa): comparable antibacterial activity to the standard
